# Target: T1, DC-SIGN (Homo sapiens, UniProt Q9NNX6)
# T1 sequence (Q9NNX6 62-404): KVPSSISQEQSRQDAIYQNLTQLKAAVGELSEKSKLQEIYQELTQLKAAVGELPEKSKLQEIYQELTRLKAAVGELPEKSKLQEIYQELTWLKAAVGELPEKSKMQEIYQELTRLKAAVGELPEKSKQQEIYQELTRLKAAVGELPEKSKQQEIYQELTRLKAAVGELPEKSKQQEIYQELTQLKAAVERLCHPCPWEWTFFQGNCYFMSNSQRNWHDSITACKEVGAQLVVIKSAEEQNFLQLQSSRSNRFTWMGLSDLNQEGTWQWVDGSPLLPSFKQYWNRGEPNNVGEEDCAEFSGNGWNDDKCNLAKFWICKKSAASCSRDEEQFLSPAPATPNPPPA
# Assay: free-glycan inhibition of DC-SIGN binding to HMG microarrays
structure (smiles),measurement,value
"C[C@@H]1O[C@@H](O[C@H]2[C@H](O[C@H]3[C@H](O)[C@@H](O)C(O)O[C@@H]3CO)O[C@H](CO)[C@H](O)[C@@H]2O)[C@@H](O)[C@H](O)[C@@H]1O (stereo partly shown) [2′-FL, 2′-fucosyllactose]",IC50,~1000 µM
